Assay results taken from patent US20220388962A1 (Biohaven Therapeutics Ltd., priority 2019, published 2022).
Counter-ions that a name gives are not always drawn.

What follows are compounds tested against TDP-43 (Homo sapiens, UniProt Q13148) (assay: TDP-43-DNA alpha-screen assay (bt-TAR-32 displacement)). Conditions: bt-TAR-32 0.125 nM, 15 ng/ml TDP-43.
Assay type: binding
Procedure: Alpha-screen assay: Displacement of bt-TG6 binding was measured using AlphaScreen technology as previously described (Cassel, J. A. et al., Journal of Biomolecular Screening, 2010, 15, 1099-1106; Cassel, J. A.; Reitz, A. B. et al. The effects of small molecule inhibitors of nucleic acid binding to TDP-43 on TDP-43 metabolism and function. Biochimie, 2012, 94, 1974-1981).
Test compounds were diluted in assay buffer (25 mM Tris [pH 7.4], 0.1% bovine serum albumin [BSA], 0.1% Triton X-100) at 4× the desired final concentration. Dilutions of test compound (50 to 0.02 μM in half-log dilutions with a no compound control well) were pre-incubated with TDP-43 (5 μl of 60 ng/mL) pre-bound to AlphaScreen® anti-GST acceptor beads (5 μl of 40 μg/mL) in 15 μl volume for 30 minutes at 23° C. with shaking. Assays were initiated by the addition of 5 μl bt-TAR-32 (5′-CTGCTTTTTGCCTGTACTGGGTCTCTGTGGTT-3′) 0.5 nM pre-bound to AlphaScreen® strepavidin donor beads (40 μg/mL). After incubation in the dark at 23° C. for 90 minutes with shaking, the AlphaScreen® signal was measured on a Synergy 2 plate reader (BioTek, Winooski, Vt.). IC50 values were determined from nonlinear regression fits of the data to a Sigmoidal dose response variable slope model in GraphPad Prism. Final assay conditions are 25 mM Tris [pH 7.4], 0.1% bovine serum albumin [BSA], 0.100 Triton X-100, 15 ng/ml TDP-43, 0.125 nM bTAR32, 10 ug/ml […].

Chain of TDP-43 (Q13148 whole entry): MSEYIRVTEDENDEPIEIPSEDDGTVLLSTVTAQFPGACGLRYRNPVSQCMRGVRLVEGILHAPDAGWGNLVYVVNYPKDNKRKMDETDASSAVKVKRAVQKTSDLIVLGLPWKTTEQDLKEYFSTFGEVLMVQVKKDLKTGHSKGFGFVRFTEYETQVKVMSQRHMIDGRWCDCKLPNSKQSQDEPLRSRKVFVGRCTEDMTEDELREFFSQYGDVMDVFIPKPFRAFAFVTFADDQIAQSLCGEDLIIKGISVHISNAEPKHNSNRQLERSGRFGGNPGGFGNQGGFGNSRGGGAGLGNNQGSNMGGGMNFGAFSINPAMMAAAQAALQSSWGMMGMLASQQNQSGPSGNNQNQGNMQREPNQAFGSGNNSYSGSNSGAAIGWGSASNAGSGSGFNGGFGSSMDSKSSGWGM

Row | SMILES | IC50
1 | COc1ccc(-c2cc(NCCCNc3ccc(-c4nn[nH]n4)cc3)c3ccccc3n2)cc1 [Example 50, N^1-(4-(2H-Tetrazol-5-yl)phenyl)-N^3-(2-(4-methoxyphenyl)quinolin-4-yl) propane-1,3-diamine] | 15300 nM
2 | COc1ccc(-c2cc(NC3CCC(N)CC3)c3cc(OC)c(OC)cc3n2)cc1 (stereo not drawn) [Example 89] | 80 nM
3 | COc1ccc(-c2cc(N[C@H]3CC[C@@H](N)CC3)c3cc(OC)c(OC)cc3n2)cc1 [Example 105] | 230 nM
4 | COc1ccc(-c2cc(NCCCN(C)CCCNS(=O)(=O)c3cccc4c(N(C)C)cccc34)c3ccccc3n2)cc1 [Example 78, 5-(dimethylamino)-N-{3-[(3-{[2-(4-methoxyphenyl)quinolin-4 yl]amino}propyl)(methyl)amino]propyl}naphthalene-1-sulfonamide] | 1260 nM
5 | COc1ccc(-c2cc(NCCCNCCC3CCCCN3)c3ccccc3n2)cc1 (stereo not drawn) [Example 45, N^1-(2-(4-methoxyphenyl)quinolin-4-yl)-N^3-(2-(piperidin-2-yl)ethyl)propane-1,3-diamine] | 710 nM
6 | COc1ccc(-c2cc(NCCCN(C)C)c3cc4c(cc3n2)OC(F)(F)O4)cc1 [Example 140] | 6560 nM
7 | [2H]C([2H])([2H])N(CCCNc1cc(-c2ccc(OC)cc2)nc2ccccc12)C([2H])([2H])[2H] [Example 130] | 1780 nM
8 | COc1ccc(-c2cc(NCCC(=O)OC(C)(C)C)c3ccccc3n2)cc1 [Example 142] | 65300 nM
9 | CC(C)C(N)C(=O)N1CCN(c2ccc(-c3cc(NCCCN(C)C)c4ccccc4n3)cc2)CC1 (stereo not drawn) [Example 91, 2-amino-1-(4-(4-(4-((3-(dimethylamino)propyl)amino)quinolin-2-yl)phenyl)piperazin-1-yl)-3-methylbutan-1-one] | 90 nM
10 | COc1ccc(-c2cc(NCCCNCCCNC(=O)OC(C)(C)C)c3ccccc3n2)cc1 [Example 6, tert-Butyl N-{3-[(3-{[2-(4-methoxyphenyl)quinolin-4yl]amino}propyl)amino]propyl}carbamate] | 760 nM
11 | COc1cc2c(NCCCN(C)C)ccnc2cc1OCCCN1CCCC1 [Example 144] | 10 nM
12 | [2H]C([2H])([2H])Oc1ccc(-c2cc(NCCCN(C)C)c3ccccc3n2)cc1 [Example 123] | 1210 nM
13 | Cc1cc(NCCCN(C)C)c2ccccc2n1 [Example 137] | 45600 nM
14 | NCCCNc1cc(-c2ccc3c(c2)CCO3)nc2ccccc12 [Example 116] | 640 nM
15 | COc1ccc(-c2cc(NC3CCN(C4CCC(N)CC4)CC3)c3ccccc3n2)cc1 (stereo not drawn) [Example 102] | 180 nM
16 | CN(CCCN)CCCNc1cc(-c2cccc(N3CCNCC3)c2)nc2ccccc12 [Example 88] | 60 nM
17 | COc1ccc(-c2cc(NCCC(=O)N(C)C)c3ccccc3n2)cc1 [Example 138] | 52600 nM
18 | COc1ccc(-c2cc(NCCCN(CC3CCN(C(=O)OC(C)(C)C)CC3)CC3CCN(C(=O)OC(C)(C)C)CC3)c3ccccc3n2)cc1 [Example 58, tert-Butyl 4-{[({1-[(tert-butoxy)carbonyl]piperidin-4-yl}methyl)(3-{[2-(4-methoxyphenyl)-quinolin-4-yl]amino}propyl)amino]methyl}piperidine-1-carboxylate] | 26700 nM

Row | SMILES | IC50
19 | NCCCNc1cc(-c2ccc(C3CCNCC3)cc2)nc2ccccc12 [Example 95] | 110 nM
20 | COc1ccc(-c2cc(NCCCN(C)CCCN(C)CCF)c3ccccc3n2)cc1 [Example 13, N^1-(2-fluoroethyl)-N^3-(3-((2-(4-methoxyphenyl)quinolin-4-yl)amino)propyl)-N^1,N^3-dimethylpropane-1,3-diamine] | 330 nM
21 | COc1ccc(-c2cc(NCCCN(C)CC3CCNCC3)c3ccccc3n2)cc1 [Example 48, N-(3-(N-Methyl-N-((piperidin-4-yl)methyl)amino)propyl)-2-(4-methoxyphenyl)quinolin-4-amine] | 100 nM
22 | COc1ccc(-c2cc(NCCCN(C)CCCNC(=O)Cc3c(C)c4ccc(N)cc4oc3=O)c3ccccc3n2)cc1 [Example 77, 2-(7-Amino-4-methyl-2-oxo-2H-chromen-3-yl)-N-(3-((3-((2-(4-methoxyphenyl)quinolin-4-yl)amino)propyl)(methyl)amino)propyl)acetamide trihydrochloride] | 250 nM
23 | COc1cc2nc(-c3ccc(N4CCNCC4)cc3)cc(N[C@H]3C[C@@H](N)C3)c2cc1OC [Example 79] | 20 nM
24 | COc1ccc(-c2cc(NCCCN(CCCN(C)C)CC3CC3)c3ccccc3n2)cc1 [Example 17, N^1-(Cyclopropylmethyl)-N^1-(3-((2-(4-methoxyphenyl)quinolin-4-yl)amino)propyl)-N^3,N^3-dimethylpropane-1,3-diamine] | 180 nM
25 | COc1ccc(-c2cc(NCCCN(CCCN(C)C)CC3CCNCC3)c3ccccc3n2)cc1 [Example 21, N^1-(3-((2-(4-Methoxyphenyl)quinolin-4-yl)amino)propyl)-N^3,N^3-dimethyl-N^1-(piperidin-4-ylmethyl)propane-1,3-diamine] | 120 nM
26 | NCCCNc1cc(C2=CCNCC2)nc2ccccc12 [Example 120] | 870 nM
27 | COc1ccc(-c2cc(NCCCNCCc3c[nH]c4cc(OC)ccc34)c3ccccc3n2)cc1 [Example 57, N-(3-(2-(6-Methoxy-1H-indol-3-yl)ethylamino)propyl)-2-(4-methoxyphenyl) quinolin-4-amine] | 260 nM
28 | COc1ccc(-c2cc(NCCCN(C)C)c3cc(OC)c(OC)cc3n2)cc1 [Example 108] | 270 nM
29 | COc1ccc(-c2cc(NCCCN(C)CC(O)CN(C)C)c3ccccc3n2)cc1 (stereo not drawn) [Example 25, 1-(Dimethylamino)-3-((3-((2-(4-methoxyphenyl)quinolin-4-yl)-amino)propyl)(methyl)amino)propan-2-ol] | 220 nM
30 | COc1ccc(-c2cc(NCCCN3CCCN(C)CC3)c3ccccc3n2)cc1 [Example 43, 2-(4-Methoxyphenyl)-N-(3-(4-methyl-1,4-diazepan-1-yl)propyl)quinolin-4-amine] | 1190 nM
31 | COc1cc2nccc(NCCCN(C)CCCN)c2cc1OC [Example 147, N^1-(3-aminopropyl)-N^3-(6,7-dimethoxyquinolin-4-yl)-N^1-methylpropane-1,3-diamine] | 840 nM
32 | COc1ccc(-c2cc(NCCCN(C)Cc3ccc(N)nc3)c3ccccc3n2)cc1 [Example 24, N^1-((6-Aminopyridin-3-yl)methyl)-N^3-(2-(4-methoxyphenyl)-quinolin-4-yl)-N^1-methylpropane-1,3-diamine] | 1110 nM
33 | CN1CCC(n2cc(-c3cc(NCCCN)c4ccccc4n3)cn2)CC1 [Example 93] | 90 nM
34 | COc1ccc(-c2cc(NCCCNCCc3ccccn3)c3ccccc3n2)cc1 [Example 54, N^1-(2-(4-methoxyphenyl)quinolin-4-yl)-N^3-(2-(pyridin-2-yl)ethyl)propane-1,3-diamine hydrochloride] | 1920 nM
35 | NCCCNc1cc(-c2ccc(N3CCNCC3)cc2)nc2ccccc12 [Example 86] | 50 nM
36 | COc1ccc(-c2cc(NCCCNCC3CCN(C(=O)OC(C)(C)C)CC3)c3ccccc3n2)cc1 [Example 62, tert-Butyl 4-{[(3-{[2-(4-methoxyphenyl)quinolin-4-yl]amino}propyl)amino]methyl}piperidine-1-carboxylate] | 1160 nM
